Experimental data from patent US4775685A, “2,4-diphenyl-1,3-dioxanes” (Imperial Chemical Industries PLC, priority 1985, dated 1988).

Key:
[1] = target: T1, TXA2 (Oryctolagus cuniculus, UniProt Q6WQI8); test: Test (a): rabbit aortal strip model, TXA2 antagonism; conditions: (+0.05) for (i)-(iii)
T1 construct: agonist TXA2 (from rabbit platelet-rich plasma) or U46619
T1 sequence (Q6WQI8 1-233): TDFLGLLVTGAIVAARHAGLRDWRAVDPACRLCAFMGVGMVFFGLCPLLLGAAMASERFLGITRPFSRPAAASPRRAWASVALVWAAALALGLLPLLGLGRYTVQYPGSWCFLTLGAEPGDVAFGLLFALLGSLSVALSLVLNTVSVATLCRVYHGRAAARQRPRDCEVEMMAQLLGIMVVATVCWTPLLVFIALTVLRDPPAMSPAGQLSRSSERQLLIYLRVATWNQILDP
Procedure: As stated earlier, the compounds of formula I are antagonists of one or more of the actions of TXA2, for example certain of its actions on blood platelets, the vasculature and/or the lung.
(a) The rabbit aortal strip model devised by Piper and Vane (Nature, 1969, 223, 29-35) using as agonist a freshly prepared sample of TXA2, generated by addition of arachidonic acid (25 μg) to citrated, platelet rich rabbit plasma (250 μl ) and allowing the mixture to aggregate fully over 90 seconds before use; alternatively the TXA2 mimetic agent known as U46619 (described by R. L. Jones et alia in "Chemistry, Biochemistry and Pharmacological Activity of Prostanoids" edited by S. M. Roberts and F. Scheinmann, at page 211; Pergamon Press, 1979) may be used as the agonist; and […]

[2] = target: T2, U46619 stimulated platelet aggregation (Homo sapiens, UniProt P21731); test: Test (b): blood platelet aggregation test (U46619, human citrated platelet-rich plasma); assay type: cell-based
T2 construct: aggregating human, citrated, platelet-rich plasma by addition of the TXA2 mimetic agent U46619; endogenous in cells; host or cells: human platelets in citrated platelet-rich plasma
T2 sequence (P21731 1-343): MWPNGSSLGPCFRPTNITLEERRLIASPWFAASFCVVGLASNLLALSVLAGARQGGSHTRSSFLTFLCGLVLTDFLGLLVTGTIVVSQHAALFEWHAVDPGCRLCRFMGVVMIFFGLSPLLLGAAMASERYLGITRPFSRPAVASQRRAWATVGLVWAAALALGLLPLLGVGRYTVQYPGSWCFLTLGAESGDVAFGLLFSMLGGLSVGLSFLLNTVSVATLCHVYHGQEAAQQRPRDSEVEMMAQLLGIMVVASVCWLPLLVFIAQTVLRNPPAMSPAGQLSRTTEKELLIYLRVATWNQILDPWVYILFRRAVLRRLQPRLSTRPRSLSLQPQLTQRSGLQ
Excerpt: (b) a blood platelet aggregation test based on that described by Born (Nature, 1962, 194, 927-929) and involving:
(i) aggregating human, citrated, platelet-rich plasma by addition of the TXA2 mimetic agent U46619 so that a dose-response curve is generated;
(iii) calculating a KB value indicating potency of TXA2 antagonism for the test compound, averaged over several concentrations, from the calculated 50% response value for U46619 aggregation in the presence and absence of test compound; and […]

pA2 [1]	Kb [2] [nM]	Structure (SMILES)
5.65	–	N#Cc1ccc([C@H]2OC[C@@H](C/C=C\CCCC(=O)O)[C@@H](c3ccccc3)O2)cc1 (relative stereo) [(v), 5(Z)-7([2,4,5-cis]-2-p-cyanophenyl-4-phenyl-1,3-dioxan-5-yl)heptenoic acid, reference compound]
7.45	5.49	N#Cc1ccc([C@H]2OC[C@@H](C/C=C\CCC(=O)O)[C@@H](c3ccccc3O)O2)cc1 (relative stereo) [compound (iii)]
6.22	–	O=C(O)CCC/C=C\C[C@@H]1CO[C@H](c2ccccc2Cl)O[C@@H]1c1ccccc1 (relative stereo) [(iv), 5(Z)-7-([2,4,5-cis]-2-o-chlorophenyl-4-phenyl-1,3-dioxan-5-yl)heptenoic acid, reference compound]
8.02	–	O=C(O)CC/C=C\C[C@@H]1CO[C@H](c2ccccc2Cl)O[C@@H]1c1ccccc1O (relative stereo) [compound (i), 4(Z)-6-([2,4,5-cis]-2-o-chlorophenyl-4-o-hydroxyphenyl-1,3-dioxan-5-yl)hexenoic acid]
8.09	0.834	N#Cc1ccccc1[C@H]1OC[C@@H](C/C=C\CCC(=O)O)[C@@H](c2ccccc2O)O1 (relative stereo) [compound (ii), 4(Z)-6-([2,4,5-cis]-2-o-cyanophenyl-4-o-hydroxyphenyl-1,3-dioxan-5-yl)hexenoic acid]
